Reference: patent US20260083677A1, “ACTIVE INGREDIENT CONTAINING STABILISED SOLID MEDICINAL FORMS AND METHODS FOR THE PRODUCTION THEREOF” (ASTELLAS PHARMA INC., priority 2006, published 2026)

Experiments:
Type in all cases: physicochemical
[1] = drying loss determination on a drying balance; details: for drying loss at 130° C./30 min: substances dried at 130° C. for 5 hours (sorbitol: 70° C.)
Description: drying loss in %=mass of the water in the sample/total mass of the sample×100
In order to determine the drying loss of a sample (e.g. a solid medicinal form), the sample is spread over a so-called drying balance and (e.g. by an accurately working infrared radiator) adjusted to the desired temperature, e.g. of 105° C. After a certain time (e.g. after 20 or 30 minutes), the drying loss due to the evaporation of water is directly read off the balance in percent. Unless otherwise specified in this application, the expression “drying loss” refers to the drying loss determined under the conditions of 105° C./30 min. A suitable device for measuring of the drying loss is the Moisture Analyzer HR83 of Mettler-Toledo company (CH-8606 Greifensee, Switzerland). The device or the drying balance is preferably used in a closed interior having an ambient temperature of 20° C. and 20% relative humidity.

[2] = relative equilibrium moisture content in sealed measuring cell (HygroLab, AWVC cell); details: for equilibrium moisture: substances dried at 130° C. for 5 hours (sorbitol: 70° C.)
Description: In connection with the present invention it is, however, very important to have a method furnishing information on the bonding mechanism of water and the strength of the water bond. For this purpose, the so-called “relative equilibrium moisture content” (hereinafter also abbreviated as “equilibrium moisture content”) is measured which forms on the sample in a fully sealed measuring cell at a certain temperature. It is also referred to as equilibrium activity or water activity. The water activity describes the bond strength of water to the active ingredient and/or the individual components of the active ingredient mixture. The measured value for the water activity and/or for the equilibrium moisture (Equilibrium Relative Humidity) has a decisive influence on the chemical stability of a moisture-sensitive active ingredient which is embedded in a solid form, such as granules, a capsule or tablet.
The equilibrium moisture content is the value of the relative humidity in which a hygroscopic product can be stored without a net moisture exchange taking place between the product and its environment. Thus, if a solid form has an equilibrium moisture content of 10% and is stored at a relative humidity of 15%, it absorbs water from its environment, if the relative moisture of the environment is below 10%, the solid form releases water to its environment and becomes even drier.
Unless otherwise specified, the equilibrium moisture content is determined as follows in a thermostated small, tightly sealed measuring cell having a volume of about 50 ml. In the upper part of this measuring cell there is a sensor which can measure the relative moisture content resulting from the evaporation of water from the sample to be measured (the device HygroLab having the AWVC measuring cell of Rotronic company, CH 8303 Bassersdorf, Switzerland, is used) The device is officially calibrated and the measuring inaccuracy is no more than +1% relative humidity or +0.3° C. The measuring accuracy can be repeated at any time with standardized salt solutions as known to the person skilled in the art. The measurement takes place at 25° C.

[3] = removal of water of crystallization from amoxicilline trihydrate by a drying agent in a tightly sealing glass vessel
Description: In a tightly sealing glass vessel, two Arcellas having 3.5 g trimagnesium dicitrate, dried at 130° C., or having 1.264 g amoxicilline trihydrate (water content 13.1%) are placed side by side and stored at 25° C. After 14 days, the weight of amoxicilline is only 1,105 g whereas the weight of trimagnesium dicitrate is 3.66 g. The amoxicilline released 12.6% water of crystallization which was absorbed by the drying agent. The new drying agent is active such that it virtually split off the entire water of crystallization of amoxicilline (theoretical value: 12.9%).
If this experiment is repeated with the known drying agent silica gel, the antibiotic only loses 0.1% weight after 25 days. This means that the dried trimagnesium dicitrate according to the invention represents an extremely potent drying agent.
Under precisely equal test conditions, the amoxicilline only loses 9.0% with calcium chloride dried at 130° C. after 26 days/25° C.

[4] = weight increase on storage at 25° C./15% relative humidity over 27 days; details: substances dried at 130° C. for 5 hours (sorbitol: 70° C.)
Description: The substances were dried at 130° C. for 5 hours (sorbitol: 70° C.) and the drying loss was determined. Then, the weight increase of the individual substances was determined at 25° C./15% relative humidity over 27 days.

[5] = measuring cell thermostated to 25° C.
[6] = measured at 150° C./30 min, after drying at 130° C. for several hours
[7] = after drying at 130° C. for several hours

Row | SMILES | equilibrium moisture content [2, 5] [%] | drying loss [1, 6] [%] | drying loss at 130° C./30 min [1] | equilibrium moisture content [2, 7] [%] | equilibrium moisture [2] [%] | weight increase (%) with storage at 15% relative humidity/25° C. [4] [%] | further results
1 | O=S(=O)([O-])[O-].[Na+].[Na+] [Sodium sulfate, reference compound] | 32.7 | – | – | – | – | – | drying loss at 130° C. ([1]; testing period 30 min): 0.06%
2 | CC1(C)S[C@@H]2[C@H](NC(=O)[C@H](N)c3ccc(O)cc3)C(=O)N2[C@H]1C(=O)O [amoxicilline, amoxicilline trihydrate] | – | – | – | – | – | – | weight of amoxicilline after storage ([3]; 1.264 g at start, beside 3.5 g dried trimagnesium dicitrate, 14 days, 25° C.): 1,105 g; weight loss ([3]; drying agent calcium chloride dried at 130° C., after 26 days/25° C.): 9.0%; weight loss ([3]; drying agent silica gel, after 25 days): 0.1%; water of crystallization released ([3]; drying agent trimagnesium dicitrate dried at 130° C., 14 days, 25° C.): 12.6%
3 | [Ca+2].[Cl-].[Cl-] [calcium chloride] | – | 3.4 | 0.02 | < 0.5 | < 1 | 45.9 | –
4 | O=C(O)CC(O)(CC(=O)O)C(=O)O [citric acid] | 63 | – | – | – | – | – | drying loss ([1]; measured at 70° C./30 min): 0.2%
5 | OC[C@@H](O)[C@@H](O)[C@H](O)[C@@H](O)CO [sorbitol] | – | – | 0.1 | – | 9 | 0.1 | –
6 | O=C([O-])CC(O)(CC(=O)[O-])C(=O)[O-].O=C([O-])CC(O)(CC(=O)[O-])C(=O)[O-].[Mg+2].[Mg+2].[Mg+2] [trimagnesium dicitrate] | – | 1.6 | 0.2 | < 0.5 | < 1 | 8.6 | equilibrium moisture content ([2]; after drying at 130° C. for several hours, at 25° C.): 0.6%; weight of trimagnesium dicitrate after storage ([3]; 3.5 g at start, dried at 130° C., beside amoxicilline trihydrate, 14 days, 25° C.): 3.66 g
